One compound from US10422079B2, “Method for preserving recycled fiber by using biocides in paper manufacturing and method for manufacturing paper using recycled fibers” (ECOLAB USA INC., priority 2014, dated 2019) can be followed below.

This test has as its system pulp contaminated by the microbes (bacteria). The test can be described thus: Starch degradation in microbe-inoculated recycled-fiber (AOCC) pulp treated with biocides, 5 days (Example 4). The class given is cell-based. To be noted: total chlorine 20 ppm, added once a day, combinations 10 ppm + 10 ppm. Here is the method:
150 g standard American Old Corrugated Containers (sometimes called as AOCC) were weighted. The total starch content of the recycled American Old Corrugated Containers was detected according to the same starch measuring method of example 2, and the result was 9.1%.
In the pulping and papermaking process, the above waste paper was cut into pieces and immersed into 15 kilograms water overnight. The obtained sample was disintegrated by Valley Beater for 30 minutes and pulped for 20 minutes, and the pulp concentration thereof is about 1%.
The above obtained pulp was inoculated by the pulp which was contaminated by bacteria in the ratio of one to thousand, followed by cultivating for 3 hours at 37° C. The simulation pulp contaminated by the microbes was obtained to use for the following experiment. The pH, oxidation-reduction potential (ORP), concentration of adenosine triphosphate (ATP) and total number of aerobic bacteria colonies of the pulp which was contaminated initially by the microbes were detected. […]
The above substances were added into the pulps once a day and the concentrations of the total chlorine were maintained at 20 ppm by controlling the addition doses. The whole experiment was conducted for 5 days and the total starches contents were monitored.

As for `OCl` [sodium hypochlorite], the starch degradation rate amounted to 5%.
